In brackets after ≈: the same amount, converted by molar mass.
Experiments:
[1] = system: melanin; test: Binding capacity of compounds to melanin; type: in vitro ADME, cuttlefish (Sepia officinalis); conditions: cuttlefish (Sepia officinalis), melanin suspension (1 mg/mL); 1 mg/mL melanin in PBS pH 7.4, 2 μM compound, 2 h at 37° C.; read-out: Fu % (percentage of free drug)
Summary of the method: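 Compound (2 μM final) incubated with washed Sepia melanin (1 mg/mL, PBS pH 7.4) 2 h at 37° C with shaking; PBS with 0.1% BSA served as blank. Supernatants quantified by LC-MS/MS; bound fraction Fb derived from melanin versus blank concentration.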

[2] = biological target: T1, EGFR (Homo sapiens, UniProt P00533); test: Kinase inhibition, Mobility Shift Assay/IMAP, EGFR; type: biochemical
T1 construct: purchased Carna 08-115
Summary of the method: (§1)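 Substrate conversion (phosphorylated vs non-phosphorylated) read by mobility shift on Caliper EZ Reader II and converted to % inhibition relative to no-enzyme and DMSO controls. IC50 fitted from % inhibition versus log compound concentration.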

[3] = biological target: T2, VEGFR2 (Homo sapiens, UniProt P35968); test: Kinase inhibition, Mobility Shift Assay/IMAP, VEGFR2; type: biochemical; design: purchased Carna 08-191
Summary of the method: as §1
Target sequence in this assay (P35968 790-1356 limits assumed): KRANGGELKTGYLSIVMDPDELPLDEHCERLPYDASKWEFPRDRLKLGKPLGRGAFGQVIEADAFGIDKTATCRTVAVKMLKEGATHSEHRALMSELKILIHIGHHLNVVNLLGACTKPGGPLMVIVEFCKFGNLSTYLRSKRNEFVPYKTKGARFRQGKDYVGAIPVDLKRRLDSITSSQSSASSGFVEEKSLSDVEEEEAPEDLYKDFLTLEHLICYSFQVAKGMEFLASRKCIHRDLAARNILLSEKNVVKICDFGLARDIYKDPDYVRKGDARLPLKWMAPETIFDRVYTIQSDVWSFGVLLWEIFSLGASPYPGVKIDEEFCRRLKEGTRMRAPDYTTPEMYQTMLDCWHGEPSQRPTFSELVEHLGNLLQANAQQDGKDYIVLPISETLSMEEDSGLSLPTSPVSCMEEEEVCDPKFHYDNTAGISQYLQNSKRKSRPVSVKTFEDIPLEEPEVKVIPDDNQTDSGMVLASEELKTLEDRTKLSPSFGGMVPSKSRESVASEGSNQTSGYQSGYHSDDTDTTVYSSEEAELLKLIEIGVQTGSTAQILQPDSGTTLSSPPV

[4] = system: HUVEC cells; test: Inhibition of VEGF-induced HUVEC cell proliferation, CellTiter Glo; type: cell-based; conditions: Homo sapiens, 20 ng/ml VEGF, 72 hours
From the text: In this experiment, human umbilical vein endothelial cells (HUVEC, Lonza) were used. HUVEC cells are primary cells isolated from umbilical veins. This cell line is a model system to study the functions of endothelial cells. Endothelial cell proliferation in response to VEGF is crucial to the pathological angiogenesis associated with conditions such as tumor development and ocular neovascular diseases.
In this assay, a luciferase bioluminescence assay (CellTiter GLU™, Promega) is used to determine the inhibitory activity of the compounds against VEGF-induced HUVEC cell proliferation and viability. CellTiter GLO™ is a homogeneous method for quantifying the count of viable cells in culture based on ATP, an indicator of metabolically active cells. In this assay, the compound was incubated with HUVEC cells for 72 hours, and then the inhibitory activity of the resulting compound against VEGF-induced HUVEC cell proliferation was measured on the En Vision plate reader.
With the RPMI-1640 medium (plus 5% FBS, 1% Penicillin-Streptomycin) used for the HUVEC cell proliferation experiment, add a cell suspension to a 96-well plate at 100 μl per well, i.e., 4000 HUVEC cells/well, and incubate them overnight in a 5% CO2 incubator at 37° C. (serum starvation). After 24 hours, add 96 μl of the experimental medium to the cell wells, and then add 2 μl of the compound to the cell wells; and after 1 hour following the addition of the compound, add 2 μl of 2 μg/ml VEGF to the cell wells. Add 0.1% DMSO and 20 ng/ml VEGF to cell wells to serve as high-reading control wells. Take cell-free wells with only medium as low-reading control wells. […] After 72 hours of incubation of the cell plate in the incubator, hold the cell plate to be tested at room temperature and discard 100 μl of medium per well. Add 100 μl of CTG reagent (CellTiter Glo kit) per well, oscillate the cell plate in a fast oscillator for 3 minutes, and keep the cell plate at room temperature in the dark for 30 minutes. Read the chemiluminescence signal value with the Envision instrument.
X indicates the log value of compound concentration, Y indicates the inhibition rate (% inhibition), Top indicates the readout of the high-reading control well.

[5] = biological target: T2, VEGFR2; test: Inhibition of VEGF-induced VEGFR2 autophosphorylation (pVEGFR2) in HUVEC cells, ELISA; type: cell-based; design: endogenous in cells; host or cells: HUVEC; conditions: 50 ng/mL human VEGF, compound 1 h
From the text: Vascular endothelial growth factor receptor 2 (VEGFR2) is a primary receptor for VEGF-induced endothelial cell signaling. After ligand binding, VEGFR2 is autophosphorylated and activated. The main function of signaling from VEGFR2 is to induce vascularization during development and after tissue injury, and to bypass blocked blood vessels. Pathologically, VEGF and VEGFR2 are involved in tumor angiogenesis and vascular leakage. They are considered to be main participants in many different cancers and ocular diseases that accompany pathological neovascularization. This assay measured the ability of the compounds to inhibit VEGF-induced VEGFR2 autophosphorylation (pVEGFR2) in HUVEC cells by using ELISA.
Culture cells in a cell culture flask to reach a fusion degree of 60%-80% before cell inoculation. Dilute the cell suspension to […] with a pre-warmed complete medium. Add 80 μL of the cell suspension to all wells of a 96-well cell plate (Corning-3599); and incubate the plate overnight at 37° C. in the presence of 5% CO2. Dissolve the compound powder to 10 mM with DMSO and store it in a nitrogen cabinet. Compound dilution plate: Add a reference compound Ponatinib or a compound to be tested to a 96 V-well plate (Axygen-WIPP 2280) at concentrations achieved as follows: performing 3-fold gradient dilution starting from 5 mM (5 μL of 10 mM compound solution plus 5 μL of DMSO) for a total of 8 concentration points. […] Transfer 20 μL of the diluted compound from the intermediate plate to a cell plate. Then, incubate the cell plate for 1 h at 37° C. in the presence of 5% CO2. After the compound was treated for 1 h, add 25 μL of 250 ng/ml human VEGF at a final concentration of 50 ng/mL to a 96-well plate; and incubate the plate for 5 min at 37° C. in the presence of 5% CO2, centrifuge the plate for 10 min at 3,000 rpm, remove the medium and wash the cells once with 300 μL of pre-chilled DPBS per well. Then, centrifuge the plate for 10 min at 4,000 rpm, remove DPBS, and add 110 μL of pre-chilled 1× cell lysis buffer per well to the 96-well plate. Shake the plate for 40 min at 4° C. Then, freeze the plate in a refrigerator at −80° C. On the next day, remove the plate from the refrigerator at −80° C., thaw the plate, centrifuge the plate for 10 min at 3500 rpm, and add 100 μL of the supernatant per well to an ELISA plate. Seal the plate and incubate it for 2 h at 37° C. Wash the wells 4 times with 1× wash buffer. Add 100 μL of recombinant detection antibody per well. Seal the plate, incubate the plate for 1 h at 37° C., and repeat the step of plate washing. Add 100 μL of secondary antibody per well. Seal the plate, incubate the plate for 30 min at 37° C., and repeat the step of plate washing. Add 100 μL of TMB (protected from light) per well. Seal the plate, incubate the plate for 30 min at 37° C., and add 100 μL of the stop solution per well. Gently shake for 30 sec, measure the absorbance with a SpectraMax® 340 PC 384 Absorbance Microplate Reader within 30 min, and read an optical density value at 450 nm. Conduct data analysis using XL Fit software:
Conduct curve fitting using the 4 Parameter Logistic Model or Sigmoidal Dose-Response Model to obtain IC50 values.
X indicates the log value of compound concentration, Y indicates the inhibition rate (% inhibition), Top indicates the readout of the negative control wells, and Bottom indicates the readout of the positive control well.

[6] = biological target: T3, VEGFR1 (Homo sapiens, UniProt P17948); test: Kinase inhibition, Mobility Shift Assay/IMAP, VEGFR1; type: biochemical
T3 construct: purchased Invitrogen PR6731B
Summary of the method: as §1

[7] = biological target: T4, VEGFR3 (Homo sapiens, UniProt P35916); test: Kinase inhibition, Mobility Shift Assay/IMAP, VEGFR3; type: biochemical
T4 construct: purchased Invitrogen PV4129
Summary of the method: as §1

[8] = Solubility test in buffer, LC-MS; type: physicochemical; conditions: aqueous buffer, thermodynamic from solid, room temperature, shaking 8 h, pH not given (method: pH 2.0, 6.5, 7.4)
Summary of the method: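 Compound at 2 mg/mL in buffers of pH 2.0, 6.5 and 7.4, sonicated, shaken 8 h at room temperature, then centrifuged at 13,000 rpm. Supernatant quantified by LC-MS against a 3–5 point calibration.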

[9] = biological target: T5, TIE2 (Homo sapiens, UniProt Q02763); test: Kinase inhibition, Mobility Shift Assay/IMAP, TIE2; type: biochemical
T5 construct: purchased BPS 40270
Summary of the method: as §1

T3 sequence (P17948 27-1338): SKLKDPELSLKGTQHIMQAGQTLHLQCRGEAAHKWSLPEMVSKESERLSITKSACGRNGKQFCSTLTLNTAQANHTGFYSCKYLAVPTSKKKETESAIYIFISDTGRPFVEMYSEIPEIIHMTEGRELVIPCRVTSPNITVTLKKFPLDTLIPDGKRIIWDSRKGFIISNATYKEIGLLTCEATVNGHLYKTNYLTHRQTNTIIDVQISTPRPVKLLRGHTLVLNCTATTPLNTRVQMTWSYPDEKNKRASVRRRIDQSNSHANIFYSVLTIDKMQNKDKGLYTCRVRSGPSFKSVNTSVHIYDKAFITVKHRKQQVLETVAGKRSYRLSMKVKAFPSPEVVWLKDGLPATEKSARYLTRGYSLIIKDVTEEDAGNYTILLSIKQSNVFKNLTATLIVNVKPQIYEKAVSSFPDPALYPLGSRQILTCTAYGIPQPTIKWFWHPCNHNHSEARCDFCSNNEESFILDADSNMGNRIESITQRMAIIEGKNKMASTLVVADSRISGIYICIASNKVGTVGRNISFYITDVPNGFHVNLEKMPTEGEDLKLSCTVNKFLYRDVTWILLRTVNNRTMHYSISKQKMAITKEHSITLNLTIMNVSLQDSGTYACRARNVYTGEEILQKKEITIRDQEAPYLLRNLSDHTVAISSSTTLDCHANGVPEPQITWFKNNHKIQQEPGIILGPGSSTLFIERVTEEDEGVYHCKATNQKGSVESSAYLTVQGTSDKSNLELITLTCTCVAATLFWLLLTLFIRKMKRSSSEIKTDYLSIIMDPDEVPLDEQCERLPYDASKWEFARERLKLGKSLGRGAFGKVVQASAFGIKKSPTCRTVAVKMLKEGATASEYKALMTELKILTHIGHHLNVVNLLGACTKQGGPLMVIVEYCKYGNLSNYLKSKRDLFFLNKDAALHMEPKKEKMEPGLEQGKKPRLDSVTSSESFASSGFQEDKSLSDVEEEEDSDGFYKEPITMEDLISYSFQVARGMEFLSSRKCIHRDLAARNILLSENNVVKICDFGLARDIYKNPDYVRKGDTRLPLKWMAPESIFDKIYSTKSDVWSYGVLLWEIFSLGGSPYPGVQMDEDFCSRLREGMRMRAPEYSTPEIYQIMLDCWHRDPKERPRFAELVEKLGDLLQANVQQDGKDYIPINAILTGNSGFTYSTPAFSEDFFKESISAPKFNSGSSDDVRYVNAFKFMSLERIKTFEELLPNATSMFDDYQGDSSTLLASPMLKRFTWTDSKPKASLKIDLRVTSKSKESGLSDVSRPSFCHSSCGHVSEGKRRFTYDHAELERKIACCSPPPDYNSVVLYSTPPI
T5 sequence (Q02763 23-1124): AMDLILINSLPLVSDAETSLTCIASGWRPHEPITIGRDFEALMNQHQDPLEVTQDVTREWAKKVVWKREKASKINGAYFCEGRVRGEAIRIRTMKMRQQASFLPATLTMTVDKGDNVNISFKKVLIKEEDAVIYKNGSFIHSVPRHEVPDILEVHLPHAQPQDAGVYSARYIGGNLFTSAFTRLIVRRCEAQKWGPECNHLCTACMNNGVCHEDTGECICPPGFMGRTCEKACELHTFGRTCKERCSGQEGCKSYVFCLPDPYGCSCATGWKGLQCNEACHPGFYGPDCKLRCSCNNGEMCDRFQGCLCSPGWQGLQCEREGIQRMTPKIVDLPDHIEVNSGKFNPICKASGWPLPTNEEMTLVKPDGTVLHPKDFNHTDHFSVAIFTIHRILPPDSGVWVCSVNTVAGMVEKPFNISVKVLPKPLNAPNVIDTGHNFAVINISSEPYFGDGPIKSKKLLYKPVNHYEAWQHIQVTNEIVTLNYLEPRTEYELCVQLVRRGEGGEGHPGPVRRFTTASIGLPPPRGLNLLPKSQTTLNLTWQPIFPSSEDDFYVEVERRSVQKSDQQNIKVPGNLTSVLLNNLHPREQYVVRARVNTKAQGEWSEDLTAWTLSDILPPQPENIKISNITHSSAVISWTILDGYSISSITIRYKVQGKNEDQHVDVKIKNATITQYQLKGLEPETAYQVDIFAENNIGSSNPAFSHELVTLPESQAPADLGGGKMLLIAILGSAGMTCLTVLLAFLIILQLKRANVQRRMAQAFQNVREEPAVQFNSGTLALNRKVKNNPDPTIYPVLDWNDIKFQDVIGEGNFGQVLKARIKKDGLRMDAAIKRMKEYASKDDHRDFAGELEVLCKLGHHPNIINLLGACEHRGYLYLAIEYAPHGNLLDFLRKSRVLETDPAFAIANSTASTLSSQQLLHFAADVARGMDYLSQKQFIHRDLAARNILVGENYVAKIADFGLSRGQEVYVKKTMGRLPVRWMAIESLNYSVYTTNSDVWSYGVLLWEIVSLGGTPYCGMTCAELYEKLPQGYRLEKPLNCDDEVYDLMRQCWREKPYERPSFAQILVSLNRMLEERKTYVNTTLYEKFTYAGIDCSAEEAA
T1 sequence (P00533 669-1210 limits assumed): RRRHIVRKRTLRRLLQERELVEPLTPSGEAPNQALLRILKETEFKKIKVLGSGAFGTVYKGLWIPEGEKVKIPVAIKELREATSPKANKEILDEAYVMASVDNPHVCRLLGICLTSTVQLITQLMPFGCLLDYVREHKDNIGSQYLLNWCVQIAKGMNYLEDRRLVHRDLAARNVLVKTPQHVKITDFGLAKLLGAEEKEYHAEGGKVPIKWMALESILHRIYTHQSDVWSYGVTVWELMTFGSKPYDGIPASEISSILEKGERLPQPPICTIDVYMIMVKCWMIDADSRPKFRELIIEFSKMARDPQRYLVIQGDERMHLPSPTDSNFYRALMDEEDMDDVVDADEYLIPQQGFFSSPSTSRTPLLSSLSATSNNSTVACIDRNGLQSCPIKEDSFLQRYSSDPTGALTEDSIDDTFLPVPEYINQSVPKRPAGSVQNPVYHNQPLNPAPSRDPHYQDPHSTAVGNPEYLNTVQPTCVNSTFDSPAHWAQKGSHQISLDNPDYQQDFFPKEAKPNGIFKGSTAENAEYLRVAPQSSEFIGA
T4 sequence (P35916 25-1363): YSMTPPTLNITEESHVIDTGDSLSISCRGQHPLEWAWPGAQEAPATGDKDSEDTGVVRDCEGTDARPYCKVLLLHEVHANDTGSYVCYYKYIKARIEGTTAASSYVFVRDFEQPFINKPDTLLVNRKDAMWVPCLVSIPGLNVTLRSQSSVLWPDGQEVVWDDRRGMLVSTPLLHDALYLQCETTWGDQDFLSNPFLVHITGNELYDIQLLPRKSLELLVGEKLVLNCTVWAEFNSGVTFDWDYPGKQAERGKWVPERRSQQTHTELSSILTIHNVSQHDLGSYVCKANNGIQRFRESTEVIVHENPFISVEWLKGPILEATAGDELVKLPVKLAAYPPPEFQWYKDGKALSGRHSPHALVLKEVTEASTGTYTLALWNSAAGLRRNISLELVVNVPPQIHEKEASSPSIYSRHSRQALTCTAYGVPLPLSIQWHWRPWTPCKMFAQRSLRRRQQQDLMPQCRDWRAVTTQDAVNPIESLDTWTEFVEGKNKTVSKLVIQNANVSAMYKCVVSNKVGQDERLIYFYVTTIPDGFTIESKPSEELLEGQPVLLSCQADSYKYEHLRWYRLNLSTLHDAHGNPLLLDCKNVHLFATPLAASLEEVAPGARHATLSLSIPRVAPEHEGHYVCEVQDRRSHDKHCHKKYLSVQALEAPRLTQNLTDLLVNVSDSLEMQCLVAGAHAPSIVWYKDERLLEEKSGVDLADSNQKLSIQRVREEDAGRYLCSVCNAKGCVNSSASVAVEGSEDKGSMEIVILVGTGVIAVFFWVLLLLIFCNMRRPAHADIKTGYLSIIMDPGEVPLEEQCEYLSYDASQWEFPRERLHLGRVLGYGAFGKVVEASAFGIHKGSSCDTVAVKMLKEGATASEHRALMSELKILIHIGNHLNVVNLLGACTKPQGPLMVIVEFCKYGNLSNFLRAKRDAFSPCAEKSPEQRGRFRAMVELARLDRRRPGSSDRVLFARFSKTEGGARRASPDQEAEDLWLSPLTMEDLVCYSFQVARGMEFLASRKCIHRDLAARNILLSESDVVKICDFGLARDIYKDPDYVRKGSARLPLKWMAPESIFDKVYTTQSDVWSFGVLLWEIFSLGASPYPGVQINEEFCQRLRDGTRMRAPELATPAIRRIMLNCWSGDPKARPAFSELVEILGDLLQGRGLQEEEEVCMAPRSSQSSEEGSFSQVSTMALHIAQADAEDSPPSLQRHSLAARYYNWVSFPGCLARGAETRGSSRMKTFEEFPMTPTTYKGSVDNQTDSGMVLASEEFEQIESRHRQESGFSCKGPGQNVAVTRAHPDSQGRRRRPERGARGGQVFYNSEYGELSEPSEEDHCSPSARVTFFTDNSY

SMILES | fraction unbound at 2 h, 2 μM [1] | IC50 [2] | IC50 [3] | IC50 [5] | IC50 [6] | IC50 [7] | solubility at 8 h [8] | IC50 [9] | IC50 [4]
NC(=O)c1c(OCc2ccc(F)c(C(=O)NC3CC3)c2)nsc1NC(=O)NCCCCN1CCCC1 [Compound T151, 3-[[3-(cyclopropylcarbamoyl)-4-fluoro-phenyl]methoxy]-5-(4-pyrrolidin-1-ylbutylcarbamoylamino)isothiazole-4-carboxamide] |  | 10700 nM | 1.75 nM | 68.4 nM | 1.53 nM | 3.91 nM | 1340 µg/mL (≈ 2590 µM) |  | 
COc1ccc(F)c(COc2nsc(NC(=O)NCCCCN3CC[C@H](O)C3)c2C(N)=O)c1F [Compound T104, 3-[(2,6-difluoro-3-methoxy-phenyl)methoxy]-5-[4-[(3S)-3-hydroxypyrrolidin-1-yl]butylcarbamoylamino] isothiazole-4-carboxamide] | 0.0322 | 18900 nM | 16.4 nM | 34.5 nM |  |  |  |  | 35.5 nM
CN1CC[C@H](CCNC(=O)Nc2snc(OCc3cc4c(cc3F)CCO4)c2C(N)=O)C1 [Compound T095, 3-[(5-fluoro-2,3-dihydrobenzofuran-6-yl)methoxy]-5-[2-[(3S)-1-methylpyrrolidin-3-yl]ethylcarbamoylamino] isothiazole-4-carboxamide] | 0.0469 | 11400 nM | 4.7 nM | 93 nM |  |  |  |  | 55.8 nM
COc1cc(OC)c(F)c(COc2nsc(NC(=O)NCCC3CCN(C)CC3)c2C(N)=O)c1F [Compound T145, 3-[(2,6-difluoro-3,5-dimethoxy-phenyl)methoxy]-5-[2-(1-methyl-4-piperidyl)ethylcarbamoylamino]isothiazole-4-carboxamide] | 0.0437 | > 60000 nM | 1.39 nM | 2.2 nM |  |  |  |  | 
NC(=O)c1c(OCc2cc(C(=O)NC3CC3)ccc2F)nsc1NC(=O)NCCCN1CCCC1 [Compound T098, 3-((5-(cyclopropylcarbamoyl)-2-fluorobenzyl)oxy)-5-(3-(3-(pyrrolidin-1-yl)propyl)ureido)isothiazole-4-carboxamide] | 0.0666 | 16500 nM | 1.56 nM | 132 nM |  |  |  | 4910 nM | 
NC(=O)c1c(OCc2c(F)cc3c(c2F)OCC3)nsc1NC(=O)NCCCCN1CCCC1 [Compound T129, 3-[(5,7-difluoro-2,3-dihydrobenzofuran-6-yl)methoxy]-5-(4-pyrrolidin-1-ylbutylcarbamoylamino)isothiazole-4-carboxamide] | 0.0889 | 15600 nM | 11.9 nM | 71 nM |  |  |  |  | 

Continued by falling IC50 [3], values first:

fraction unbound at 2 h, 2 μM [1] | IC50 [2] | IC50 [3] | IC50 [5] | IC50 [6] | IC50 [7] | solubility at 8 h [8] | IC50 [9] | SMILES | IC50 [4]
0.0629 | 15000 nM | 17.4 nM | 19 nM |  |  | 278 µg/mL (≈ 559 µM) |  | COc1ccc(F)c(COc2nsc(NC(=O)NCCCCN3CCCCC3)c2C(N)=O)c1F [Compound T131, 3-[(2,6-difluoro-3-methoxy-phenyl)methoxy]-5-[4-(1-piperidyl)butylcarbamoylamino]isothiazole-4-carboxamide] | 
0.0333 | 13400 nM | 12.8 nM | 32.5 nM |  |  |  |  | COc1ccc(F)c(COc2nsc(NC(=O)NCCCCN3CC[C@@H](O)C3)c2C(N)=O)c1F [Compound T114, 3-[(2,6-difluoro-3-methoxy-phenyl)methoxy]-5-[4-[(3R)-3-hydroxypyrrolidin-1-yl]butylcarbamoylamino]isothiazole-4-carboxamide] | 19 nM
 | 12000 nM | 2.35 nM | 52.2 nM | 2.39 nM | 10 nM | 1580 µg/mL (≈ 3040 µM) |  | CN1CCN(CCNC(=O)Nc2snc(OCc3ccc(F)c(C(=O)NC4CC4)c3)c2C(N)=O)CC1 [Compound T149, 3-[[3-(cyclopropylcarbamoyl)-4-fluoro-phenyl]methoxy]-5-[2-(4-methylpiperazin-1-yl)ethylcarbamoylamino]isothiazole-4-carboxamide] | 
0.0241 | 16100 nM | 2.09 nM | 56.5 nM | 5.72 nM | 16.8 nM | 800 µg/mL (≈ 1500 µM) | 4060 nM | CN1CCN(CCCNC(=O)Nc2snc(OCc3ccc(F)c(C(=O)NC4CC4)c3)c2C(N)=O)CC1 [Compound T078, 3-[[3-(cyclopropylcarbamoyl)-4-fluoro-phenyl]methoxy]-5-[3-(4-methylpiperazin-1-yl)propylcarbamoylamino]isothiazole-4-carboxamide] | 
 |  | 1.2 nM | 4.9 nM |  |  |  | 1180 nM | NC(=O)c1c(OCc2cc(C(=O)NC3CC3)c(F)cc2F)nsc1NC(=O)NCCCCN1CCCC1 [Compound T128, 3-[[5-(cyclopropylcarbamoyl)-2,4-difluoro-phenyl]methoxy]-5-(4-pyrrolidin-1-ylbutylcarbamoylamino)isothiazole-4-carboxamide] | 
